Data as given in patent US11629138B2, “Microbiocidal picolinamide derivatives” (Syngenta Participations AG, priority 2017, dated 2023).

Experiments:
[1] = test system: Glomerella lagenarium (Colletotrichum lagenarium); experiment: Glomerella lagenarium (Colletotrichum lagenarium) / liquid culture (anthracnose); type: cell-based; settings: Colletotrichum orbiculare; 200 ppm in the formulation; PDB broth, 24° C., photometric, 3 to 4 days after application; vs untreated control; read-out: disease control (inhibition of growth)
Procedure: (§1) Glomerella lagenarium (Colletotrichum lagenarium)/Liquid Culture (Anthracnose) Conidia of the fungus from cryogenic storage are directly mixed into nutrient broth (PDB potato dextrose broth). After placing a (DMSO) solution of test compound into a microtiter plate (96-well format), the nutrient broth containing the fungal spores is added. The test plates are incubated at 24° C. and the inhibition of growth is measured photometrically 3 to 4 days after application.

[2] = test system: Magnaporthe grisea (Pyricularia oryzae); experiment: whole plant or invertebrate; type: in vivo; settings: foliar, read-out: disease control
[3] = test system: Monographella nivalis (Microdochium nivale); experiment: Monographella nivalis (Microdochium nivale) / liquid culture (foot rot cereals); type: cell-based; settings: 200 ppm in the formulation, PDB broth, 24° C., photometric, 4-5 days after application, vs untreated control, read-out: disease control (inhibition of growth)
Procedure: as §1, with “Monographella nivalis (Microdochium nivale)/Liquid” for “Glomerella lagenarium (Colletotrichum lagenarium)/Liquid”, “(Foot Rot Cereals)” for “(Anthracnose)”, “determined” for “measured”, “4-5” for “3 to 4”

[4] = test system: Mycosphaerella arachidis (Cercospora arachidicola); experiment: Mycosphaerella arachidis (Cercospora arachidicola) / liquid culture (early leaf spot); type: cell-based; settings: 200 ppm in the formulation, PDB broth, 24° C., photometric, 4-5 days after application, vs untreated control, read-out: disease control (inhibition of growth)
Procedure: as §1, with “Mycosphaerella arachidis (Cercospora arachidicola)/Liquid” for “Glomerella lagenarium (Colletotrichum lagenarium)/Liquid”, “(Early Leaf Soot)” for “(Anthracnose)”, “determined” for “measured”, “4-5” for “3 to 4”

[5] = test system: Mycosphaerella graminicola (Septoria tritici); experiment: Mycosphaerella graminicola (Septoria tritici) / liquid culture (Septoria blotch); type: cell-based; settings: Zymoseptoria tritici; 200 ppm in the formulation; PDB broth, 24° C., photometric, 4 to 5 days after application; vs untreated control; read-out: disease control (inhibition of growth)
Procedure: (§2) Mycosphaerella graminicola (Septoria tritici)/Liquid Culture (Septoria Blotch) Conidia of the fungus from cryogenic storage are directly mixed into nutrient broth (PDB potato dextrose broth). After placing a (DMSO) solution of test compound into a microtiter plate (96-well format), the nutrient broth containing the fungal spores is added. The test plates are incubated at 24° C. and the inhibition of growth is determined photometrically 4 to 5 days after application.

[6] = test system: Phaeosphaeria nodorum (Setoria nodorum); experiment: Phaeosphaeria nodorum (Septoria nodorum) / wheat / leaf disc preventative (glume blotch); type: in vivo; settings: Parastagonospora nodorum, foliar, 200 ppm in the formulation, wheat leaf segments cv. Kanzler, 5-7 days after application, vs untreated control, read-out: disease control
Procedure: Phaeosphaeria nodorum (Setoria nodorum)/Wheat/Leaf Disc Preventative (Glume Blotch) Wheat leaf segments cv. Kanzler are placed on agar in a multiwell plate (24-well format) and sprayed with the formulated test compound diluted in water. The leaf disks are inoculated with a spore suspension of the fungus 2 days after application. The inoculated test leaf disks are incubated at 20° C. and 75% rh under a light regime of 12 h light/12 h darkness in a climate cabinet and the activity of a compound is assessed as percent disease control compared to untreated when an appropriate level of disease damage appears in untreated check leaf disks (5-7 days after application).

[7] = test system: Puccinia recondita f. so. tritici; experiment: Puccinia recondita f. sp. tritici / wheat / leaf disc preventative (brown rust); type: in vivo; settings: foliar, 200 ppm in the formulation, wheat leaf segments cv. Kanzler, 7-9 days after application, vs untreated control, read-out: disease control
Procedure: Puccinia recondita f. so. tritici/Wheat/Leaf Disc Preventative (Brown Rust)
Wheat leaf segments cv. Kanzler are placed on agar in multiwell plates (24-well format) and sprayed with the formulated test compound diluted in water. The leaf disks are inoculated with a spore suspension of the fungus 1 day after application. The inoculated leaf segments are incubated at 19° C. and 75% rh under a light regime of 12 h light/12 h darkness in a climate cabinet and the activity of a compound is assessed as percent disease control compared to untreated when an appropriate level of disease damage appears in untreated check leaf segments (7-9 days after application).

[8] = test system: Botryotinia fuckeliana (Botrytis cinerea); experiment: Botryotinia fuckeliana (Botrytis cinerea) liquid culture (gray mould); type: cell-based; settings: 200 ppm in the formulation, Vogels broth, 24° C., photometric, 3-4 days after application, vs untreated control, read-out: disease control (inhibition of growth)
Procedure: as §2, with “Botryotinia fuckeliana (Botrytis cinerea) Liquid” for “Mycosphaerella graminicola (Septoria tritici)/Liquid”, “(Gray Mould)” for “(Septoria Blotch)”, “(Vogels” for “(PDB potato dextrose”, “3-4” for “4 to 5”

Pythium ultimum = Pythium ultimum / liquid culture (seedling damping off); type: cell-based; settings: Globisporangium ultimum; 200 ppm in the formulation; PDB broth, 24° C., photometric, 2-3 days after application; vs untreated control; read-out: disease control (inhibition of growth)
Procedure: Pythium ultimum/Liquid Culture (Seedling Damping Off) Mycelia fragments and oospores of a newly grown liquid culture of the fungus are directly mixed into nutrient broth (PDB potato dextrose broth). After placing a (DMSO) solution of test compound into a microtiter plate (96-well format), the nutrient broth containing the fungal mycelia/spore mixture is added. The test plates are incubated at 24° C. and the inhibition of growth is determined photometrically 2-3 days after application.

COc1ccnc(C(=O)N[C@@H](C)C(=O)OC(C)C(C)n2ccc3c(Cl)ccc(Cl)c32)c1O (stereo partly drawn) [I.bb.001, [2-(4,7-dichloroindol-1-yl)-1-methyl-propyl] (2S)-2-[(3-hydroxy-4-methoxy-pyridine-2-carbonyl)amino] propanoate]
≥ 80%: inhibition at 200 ppm [1] | pest or weed control at 200 ppm [2] | inhibition at 200 ppm [3] | inhibition at 200 ppm [4] | inhibition at 200 ppm [5] | pest or weed control at 200 ppm [6] | pest or weed control at 200 ppm [7]

COc1ccnc(C(=O)N[C@@H](C)C(=O)OC(C)C(C)c2nc3ccccc3s2)c1O (stereo partly drawn) [I.e.001, [2-(1,3-benzothiazol-2-yl)-1-methyl-propyl] (2S)-2-[(3-hydroxy-4-methoxy-pyridine-2-carbonyl)amino] propanoate]
≥ 80%: inhibition at 200 ppm [8] | inhibition at 200 ppm [1] | pest or weed control at 200 ppm [2] | inhibition at 200 ppm [3] | inhibition at 200 ppm [4] | inhibition at 200 ppm [5] | pest or weed control at 200 ppm [7]

COc1ccnc(C(=O)N[C@@H](C)C(=O)OC(C)C(C)n2ccc3cc(Cl)ccc32)c1O (stereo partly drawn) [I.y.001, [2-(5-chloroindol-1-yl)-1-methyl-propyl] (2S)-2-[(3-hydroxy-4-methoxy-pyridine-2-carbonyl)amino]propanoate]
≥ 80%: inhibition at 200 ppm [8] | inhibition at 200 ppm [1] | inhibition at 200 ppm [3] | inhibition at 200 ppm [4] | inhibition at 200 ppm [5] | pest or weed control at 200 ppm [7] | inhibition at 200 ppm (Pythium ultimum)

COc1ccnc(C(=O)N[C@@H](C)C(=O)OC(C)C(C)c2ncc(Cl)cc2Cl)c1OCOC(=O)C(C)C (stereo partly drawn) [I.an.081, [2-[[(1S)-2-[2-(3,5-dichloro-2-pyridyl)-1-methyl-propoxy]-1-methyl-2-oxo-ethyl]carbamoyl]-4-methoxy-3-pyridyl]oxymethyl 2-methylpropanoate]
≥ 80%: pest or weed control at 200 ppm [2] | inhibition at 200 ppm [3] | inhibition at 200 ppm [4] | inhibition at 200 ppm [5] | pest or weed control at 200 ppm [6] | pest or weed control at 200 ppm [7]

COc1ccnc(C(=O)N[C@@H](C)C(=O)OC(C)C(C)c2ccc(Cl)s2)c1O (stereo partly drawn) [I.ar.001, [2-(5-chloro-2-thienyl)-1-methyl-propyl] (2S)-2-[(3-hydroxy-4-methoxy-pyridine-2-carbonyl)amino]propanoate]
≥ 80%: inhibition at 200 ppm [1] | pest or weed control at 200 ppm [2] | inhibition at 200 ppm [3] | inhibition at 200 ppm [4] | inhibition at 200 ppm [5] | pest or weed control at 200 ppm [7]

COc1ccnc(C(=O)N[C@@H](C)C(=O)OC(C)C(C)n2ccc3c(F)ccc(Br)c32)c1OC(C)=O (stereo partly drawn) [I.bd.041, [2-(7-bromo-4-fluoro-indol-1-yl)-1-methyl-propyl] (2S)-2-[(3-acetoxy-4-methoxy-pyridine-2-carbonyl)amino]propanoate]
≥ 80%: inhibition at 200 ppm [1] | pest or weed control at 200 ppm [2] | inhibition at 200 ppm [3] | inhibition at 200 ppm [4] | inhibition at 200 ppm [5] | pest or weed control at 200 ppm [6] | pest or weed control at 200 ppm [7]

COc1ccnc(C(=O)N[C@@H](C)C(=O)OC(C)C(C)n2ccc3cccc(Br)c32)c1O (stereo partly drawn) [I.ba.001, [2-(7-bromoindol-1-yl)-1-methyl-propyl] (2S)-2-[(3-hydroxy-4-methoxy-pyridine-2-carbonyl)amino]propanoate]
≥ 80%: inhibition at 200 ppm [1] | pest or weed control at 200 ppm [2] | inhibition at 200 ppm [3] | inhibition at 200 ppm [4] | inhibition at 200 ppm [5] | pest or weed control at 200 ppm [6] | pest or weed control at 200 ppm [7]

COc1ccnc(C(=O)N[C@@H](C)C(=O)OC(C)C(C)n2ccc3c(Br)ccc(F)c32)c1OC(C)=O (stereo partly drawn) [I.ab.041, [2-(4-bromo-7-fluoro-indol-1-yl)-1-methyl-propyl] (2S)-2-[(3-acetoxy-4-methoxy-pyridine-2-carbonyl)amino]propanoate]
≥ 80%: inhibition at 200 ppm [1] | pest or weed control at 200 ppm [2] | inhibition at 200 ppm [4] | inhibition at 200 ppm [5] | pest or weed control at 200 ppm [6] | pest or weed control at 200 ppm [7]

COc1ccnc(C(=O)N[C@@H](C)C(=O)OC(C)C(C)n2ccc3c(F)ccc(Br)c32)c1O (stereo partly drawn) [I.bd.001, [2-(7-bromo-4-fluoro-indol-1-yl)-1-methyl-propyl] (2S)-2-[(3-hydroxy-4-methoxy-pyridine-2-carbonyl)amino]propanoate]
≥ 80%: inhibition at 200 ppm [1] | pest or weed control at 200 ppm [2] | inhibition at 200 ppm [3] | inhibition at 200 ppm [4] | inhibition at 200 ppm [5] | pest or weed control at 200 ppm [6] | pest or weed control at 200 ppm [7]

COc1ccnc(C(=O)N[C@@H](C)C(=O)OC(C)C(C)c2ncc(Cl)cc2Cl)c1O (stereo partly drawn) [I.an.001, [2-(3,5-dichloro-2-pyridyl)-1-methyl-propyl] (2S)-2-[(3-hydroxy-4-methoxy-pyridine-2-carbonyl)amino] propanoate]
≥ 80%: inhibition at 200 ppm [1] | pest or weed control at 200 ppm [2] | inhibition at 200 ppm [4] | inhibition at 200 ppm [5] | pest or weed control at 200 ppm [6] | pest or weed control at 200 ppm [7]

COc1ccnc(C(=O)N[C@@H](C)C(=O)OC(C)C(C)n2ccc3cc(Br)ccc32)c1O (stereo partly drawn) [I.bc.001, [2-(5-bromoindol-1-yl)-1-methyl-propyl] (2S)-2-[(3-hydroxy-4-methoxy-pyridine-2-carbonyl)amino]propanoate]
≥ 80%: inhibition at 200 ppm [1] | pest or weed control at 200 ppm [2] | inhibition at 200 ppm [3] | inhibition at 200 ppm [4] | inhibition at 200 ppm [5] | pest or weed control at 200 ppm [7]

COc1ccnc(C(=O)N[C@@H](C)C(=O)OC(C)C(C)c2sc3ccccc3c2C)c1O (stereo partly drawn) [I.as.001, [1-methyl-2-(3-methylbenzothiophen-2-yl)propyl] (2S)-2-[(3-hydroxy-4-methoxy-pyridine-2-carbonyl)amino]propanoate]
≥ 80%: inhibition at 200 ppm [8] | inhibition at 200 ppm [1] | pest or weed control at 200 ppm [2] | inhibition at 200 ppm [3] | inhibition at 200 ppm [4] | inhibition at 200 ppm [5] | pest or weed control at 200 ppm [6] | pest or weed control at 200 ppm [7]
